{
  "source": "patent US20230263783A1",
  "about": "“CANCER TREATMENT BY COMBINED INHIBITION OF POLO-LIKE KINASE AND MICROTUBULE POLYMERIZATION” (Massachusetts Institute of Technology, priority 2022, published 2023)",
  "key": {"[1]": {"test_system": "growth factor activated endothelial cells", "conditions": "cited from earlier work"}, "[2]": {"test_system": "HCT116, NCI-H460, and taxane-resistant CXB1 colon carcinoma xenografts", "design": "dose or concentration left out as unconfirmed", "conditions": "cited from earlier work"}, "[3]": {"test_system": "panel of >50 other kinases", "conditions": "in vitro; cited from earlier work"}, "[4]": {"conditions": "cited from earlier work"}, "[5]": {"test_system": "C4-2 castrate resistant prostate cancer (CRPC) cells", "experiment": "Relative viability after drug dose matrix (CellTiter-Glo, Bliss Independence) in C4-2 cells", "assay_type": "cell-based", "conditions": "for concentrations at which the more than additive reduction occurs / reduction in cancer cell viability of maytansinoid with Plk1 inhibitor versus each alone: C4-2 cells, with onvansertib; for reduction in cancer cell viability of maytansinoid with Plk1 inhibitor versus each alone: five days, free agents, FIGS. 5A and 5B", "procedure": "All cell lines were cultured in a humidified incubator at 37° C. and with 5% CO2, were maintained sub-confluent and used for no more than 20 passages. Media was supplemented with 10% fetal bovine serum (FBS), contained 2 mM glutamine and lacked antibiotics, unless otherwise noted. A549, BT-20, CCD-1112sk, CCD-18co, CFPAC1, HCT 116, HeLa, HT-29, HT55, MCF7, MDA-MB-157, MDA-MB-231, MDA-MB-415, MDA-MB-436, MDA-MB-453, MDA-MB-468, SW48, T98G, U-2 OS, U-87 MG, CAOV3, COV362, and JIMT1 cells were grown in DMEM; 22RV1, AU565, C4-2, CAL33, COL0205,HCC38, HCT-15, KYSE150, LNCaP, LOVO, NCI-H1299, PC-3, ZR-75-1, HCC1419, HCC1569, HCC1954, ZR7530, OVCAR-4, OVCAR8 cells were grown in RPMI 1640; HT1197, HT1376, J82, UMUC3 cells were grown in MEM; OV90, TOV122D, TOV21G cells were grown in 1:1 MCDB105:Medial99 15% FBS; 59M, OAW28, OAW42 cells were grown in Advanced DMEM 0.023 IU/ml insulin; ES2, SKOV3 cells were grown in McCoy's 5A; JHOS2, JHOS4 cells were grown in 1:1 DMEM:HamF12; HUVEC cells were grown in EBM with EGM™-2 BULLETKIT™\nFor dose response experiments and experiments that examine synergy as a measure of change in relative viability, cells were grown in 384-well plates in triplicate. The following day the cells were subjected to a drug dose matrix that consisted of increasing concentrations of a Plk inhibitor, increasing concentrations of a microtubule polymerization inhibitor, and all pairwise combinations. Drugs were dissolved in DMSO and diluted in the appropriate cell growth media while maintaining a constant final concentration of DMSO. After five days, relative viability was assessed using […]-GLO™ (Promega) Luminescent Cell Viability Assay according to the manufacturer's recommendations. Luminescence was measured using an […]™ M200 Pro plate reader (Tecan Group Ltd.). […] The dose response plots (for example FIG. 1A) show sensitivity to increasing concentrations of a microtubule polymerization inhibitor in the absence or presence of a constant amount of Plk inhibitor. Bars represent the standard error of the mean. The concentration of Plk inhibitor chosen to presented was based on a ˜20-30% reduction of viability when that drug was used at that dose in isolation. The entire amount of greater-than-additive response observed in the dose matrix is the integrated volume between the observed and expected surfaces generated by the response matrix and is also known as Bliss Volume. Bliss Volume synergy metrics are presented in FIG. 3 as the fractional change in volume between the expected and observed response surfaces."}, "[6]": {"test_system": "Her2+ trastuzumab-resistant breast cancer", "conditions": "via CDK1-dependent phosphorylation and inactivation of Bcl-2/xL; cited from earlier work"}, "[7]": {"test_system": "variety of tumors, including those that express the multidrug resistance (MDR) phenotype", "conditions": "read-out: IC50 against a variety of tumors; cited from earlier work"}, "[8]": {"test_system": "Her2+ breast cancer cell lines", "experiment": "Viability dose matrix in panel of six Her2+ breast cancer cell lines", "assay_type": "cell-based", "conditions": "DM1 with onvansertib, five days, majority of six cell lines, FIGS. 8A-8F", "procedure": "(§1) All cell lines were cultured in a humidified incubator at 37° C. and with 5% CO2, were maintained sub-confluent and used for no more than 20 passages. Media was supplemented with 10% fetal bovine serum (FBS), contained 2 mM glutamine and lacked antibiotics, unless otherwise noted. […]\n(§2) For dose response experiments and experiments that examine synergy as a measure of change in relative viability, cells were grown in 384-well plates in triplicate. […] After five days, relative viability was assessed using […]-GLO™ (Promega) Luminescent Cell Viability Assay according to the manufacturer's recommendations. Luminescence was measured using an […]™ M200 Pro plate reader (Tecan Group Ltd.). […]"}, "[9]": {"test_system": "ovarian cancer cell lines", "experiment": "Viability dose matrix in panel of 14 ovarian cancer cell lines", "assay_type": "cell-based", "conditions": "DM4 with onvansertib, five days, FIGS. 6A-6N", "procedure": "as §1, §2"}, "[10]": {"test_system": "T47D cells", "conditions": "read-out: GI50, cell proliferation; cited from earlier work"}, "[11]": {"test_system": "T47D cells", "conditions": "read-out: EC50 for caspase activation; cited from earlier work"}, "[12]": {"conditions": "oral administration; cited from earlier work"}, "[13]": {"test_system": "UMUC3", "experiment": "Viability dose matrix in UMUC3 bladder cancer cells", "assay_type": "cell-based", "conditions": "MMAE with onvansertib, five days, FIG. 7D", "procedure": "as §1, §2"}, "[14]": {"test_system": "bladder cancer cell lines", "experiment": "Viability dose matrix in panel of four bladder cancer cell lines", "assay_type": "cell-based", "conditions": "MMAE with onvansertib, five days, FIGS. 7A-7D", "procedure": "as §1, §2"}, "[15]": {"conditions": "relative to 2-ME; cited from earlier work"}},
  "note": "Where a SMILES comes first, the peptide text is derived from it. [ ]: non-standard residue; d: D form. The star is where a group is joined. Dolaproine = CO[C@@H]([C@@H]1CCCN1)[C@@H](C)C(=O)O; Dil = CC[C@H](C)[C@H](NC)[C@@H](CC(=O)O)OC; X1 = C[C@@H](N*)[C@@H](O)c1ccccc1; NMeV = CN[C@H](C(=O)O)C(C)C",
  "data": [
    {"smiles": "COc1cc(C(=O)c2c(C)oc3c(O)c(OC)ccc23)cc(OC)c1OC", "note": "[BNC-105]", "values": [
      {"measurement": "selectivity for growth factor activated endothelial cells compared to quiescent HUVECs", "setting": "[1]", "result": 81, "unit": "fold"}
    ]},
    {"smiles": "CC[C@@H]1C(=O)N(C)c2cnc(Nc3ccc(C(=O)N[C@H]4CC[C@H](N5CCN(CC6CC6)CC5)CC4)cc3OC)nc2N1C(C)C", "note": "[BI6727]", "values": [
      {"measurement": "growth of human carcinoma xenografts", "setting": "[2]", "result": "significantly inhibits the growth"},
      {"measurement": "inhibitory activity against a panel of >50 other kinases", "setting": "[3]", "result": "no inhibitory activity"},
      {"measurement": "recommended dose for further development", "setting": "[4]; advanced solid tumors, i.v. once every 3 weeks, based on overall tolerability", "result": 300, "unit": "mg"},
      {"measurement": "MTD", "setting": "[4]; advanced solid tumors, i.v. once every 3 weeks", "result": 400, "unit": "mg"},
      {"measurement": "MTD in combination with afatinib", "setting": "[4]; advanced solid tumors", "result": 300, "unit": "mg"},
      {"measurement": "effect of the combination of TH588 with a Plk1 inhibitor", "setting": "[5]; each Plk1 inhibitor in combination with TH588, relative viability", "result": "more than additive"},
      {"measurement": "effect on T-DM1 resistance", "setting": "[6]", "result": "overcomes T-DM1 resistance"}
    ]},
    {"smiles": "COc1ccc(NS(=O)(=O)c2c(F)c(F)c(F)c(F)c2F)cc1F", "note": "[T138067]", "values": [
      {"measurement": "IC50", "setting": "[7]", "result": "11 to 165", "unit": "nM"}
    ]},
    {"smiles": "COc1cc2cc(c1Cl)N(C)C(=O)C[C@H](OC(=O)[C@H](C)N(C)C(=O)CCS)C1(C)O[C@H]1[C@H](C)[C@@H]1C[C@@](O)(NC(=O)O1)[C@H](OC)/C=C/C=C(\\C)C2", "note": "(stereo partly shown) [DM1]", "values": [
      {"measurement": "response to combined Plk1 inhibitor and DM1", "setting": "[8]", "result": "greater than additive response"},
      {"measurement": "concentrations at which the more than additive reduction occurs", "setting": "[5]", "result": "sub-nanomolar"},
      {"measurement": "reduction in cancer cell viability of maytansinoid with Plk1 inhibitor versus each alone", "setting": "[5]", "result": "more than the additive reduction"}
    ]},
    {"smiles": "COc1cc2cc(c1Cl)N(C)C(=O)C[C@H](OC(=O)[C@H](C)N(C)C(=O)CCC(C)(C)S)C1(C)O[C@H]1[C@H](C)[C@@H]1C[C@@](O)(NC(=O)O1)[C@H](OC)/C=C/C=C(\\C)C2", "note": "(stereo partly shown) [DM4]", "values": [
      {"measurement": "cell lines with greater than additive responses to the drug combination", "setting": "[9]", "result": "Ten of fourteen"},
      {"measurement": "concentrations at which the more than additive reduction occurs", "setting": "[5]", "result": "sub-nanomolar"},
      {"measurement": "reduction in cancer cell viability of maytansinoid with Plk1 inhibitor versus each alone", "setting": "[5]", "result": "more than the additive reduction"}
    ]},
    {"smiles": "COc1ccc(N(C)c2nc(Cl)nc3ccccc23)cc1", "note": "[MPI-0441138]", "values": [
      {"measurement": "GI50", "setting": "[10]", "result": 2, "unit": "nM"},
      {"measurement": "EC50", "setting": "[11]", "result": 2, "unit": "nM"}
    ]},
    {"smiles": "COc1ccc(S(=O)(=O)Nc2cccnc2Nc2ccc(O)cc2)cc1", "note": "[ABT-751]", "values": [
      {"measurement": "maximum tolerated dose", "setting": "[4]; daily schedule, phase I", "result": 250, "unit": "mg/day"},
      {"measurement": "overall mean Tmax", "setting": "[12]", "result": "about 2 h"}
    ]},
    {"smiles": "CC[C@H](C)[C@@H]([C@@H](CC(=O)N1CCC[C@H]1[C@H](OC)[C@@H](C)C(=O)N[C@H](C)[C@@H](O)c1ccccc1)OC)N(C)C(=O)[C@@H](NC(=O)[C@@H](NC)C(C)C)C(C)C", "note": "[MMAE, monomethyl auristatin E] (H-[NMeV]V[Dil][Dolaproine]-X1)", "values": [
      {"measurement": "response to the combination in UMUC3", "setting": "[13]", "result": "very notable response"},
      {"measurement": "response to the combination in bladder cancer cell lines", "setting": "[14]", "result": "Varying amounts of greater than additive responses"}
    ]},
    {"smiles": "COc1cc2c(cc1O)CC[C@@H]1[C@@H]2CC[C@]2(C)C(=O)CC[C@@H]12", "note": "[2-methoxyestrone]", "values": [
      {"measurement": "loss in activity in vitro on oxidation of 2-ME to 2-methoxyestrone", "setting": "[15]", "result": "10-to 100 fold"}
    ]}
  ]
}
